Data on 36 molecules can be found in patent publication US11306066B2, “4H-pyran compounds as insulin-regulated aminopeptidase (IRAP) inhibitors” (Monash University, priority 2015, dated 2022).

Like-named read-outs stand apart in the source and are kept apart here.

This assay concerns the target T1, recombinant IRAP (Homo sapiens, UniProt Q9UIQ6).
T1 construct: expressed in transfected cells; host or cells: HEK 293T
Put plainly: IRAP enzymatic assay (hydrolysis of Leu-MCA). It counts as biochemical. The settings on record: for IC50: substrate Leu-MCA; for Ki: calculated from IC50, substrate Leu-MCA. As to the method: An in vitro enzymatic assay was used to initially assess IRAP inhibitory activity.
Crude membranes were prepared from HEK 293T cells transfected with IRAP or empty vector, then solubilized in buffer consisting of 50 mM Tris-HCl, 1% Triton X-100, pH 7.4 at 4° C. under agitation over 5 h. After solubilization, the membranes were pelleted by centrifugation at 23,100 g for 15 min at 4° C., and the supernatant was reserved as the source of IRAP activity. The enzymatic activities of recombinant IRAP were determined by the hydrolysis of the synthetic substrate Leu-MCA (Sigma-Aldrich, Missouri, USA) monitored by the release of a fluorogenic product, MCA, at excitation and emission wavelengths of 380 and 440 nm, respectively. Assays were performed in 96-well plates; each well contains between 0.2-10 μg solubilized membrane protein, a range of concentration of substrate in a final volume of 100 μL 50 mM Tris-HCl buffer (pH 7.4). Non-specific hydrolysis of the substrate was corrected by subtracting the emission from incubations with membranes transfected with empty vector. Reactions proceeded at 37° C. for 30 min within a thermostatted FLEX station fluorescence microplate reader (Molecular Devices, Sunnyvale, Calif.). The kinetic parameters (Km and V) were determined by non-linear fitting of the Michaelis-Menten equation (GraphPad Prism, GraphPad Software Inc., CA, USA); final concentrations of Leu-MCA of 15.6 μM-1 mM. Inhibitor constants (Ki) for the competitive inhibitors were calculated from the relationship IC50=[…], where IC50 values were determined over a range of inhibitor concentrations (10^−9 to 10^−4 M). Km values of IRAP for Leu-MCA were determined from the kinetic studies. Binding affinities of the compounds to IRAP were examined by monitoring the inhibition of the hydrolysis of Leu-MCA in the presence of increasing concentrations of the compounds (10^−8 to 10^−3 M). All data obtained were from at least three separate experiments performed in duplicate.
The results for some compounds of Formula (I) are set out below in Tables 2-1 to 2-8. The compounds were obtained commercially (Specs, Interbioscreen Ltd and Chembridge Corporation) or prepared according to the procedures outlined above.

T1 sequence (Q9UIQ6 whole entry): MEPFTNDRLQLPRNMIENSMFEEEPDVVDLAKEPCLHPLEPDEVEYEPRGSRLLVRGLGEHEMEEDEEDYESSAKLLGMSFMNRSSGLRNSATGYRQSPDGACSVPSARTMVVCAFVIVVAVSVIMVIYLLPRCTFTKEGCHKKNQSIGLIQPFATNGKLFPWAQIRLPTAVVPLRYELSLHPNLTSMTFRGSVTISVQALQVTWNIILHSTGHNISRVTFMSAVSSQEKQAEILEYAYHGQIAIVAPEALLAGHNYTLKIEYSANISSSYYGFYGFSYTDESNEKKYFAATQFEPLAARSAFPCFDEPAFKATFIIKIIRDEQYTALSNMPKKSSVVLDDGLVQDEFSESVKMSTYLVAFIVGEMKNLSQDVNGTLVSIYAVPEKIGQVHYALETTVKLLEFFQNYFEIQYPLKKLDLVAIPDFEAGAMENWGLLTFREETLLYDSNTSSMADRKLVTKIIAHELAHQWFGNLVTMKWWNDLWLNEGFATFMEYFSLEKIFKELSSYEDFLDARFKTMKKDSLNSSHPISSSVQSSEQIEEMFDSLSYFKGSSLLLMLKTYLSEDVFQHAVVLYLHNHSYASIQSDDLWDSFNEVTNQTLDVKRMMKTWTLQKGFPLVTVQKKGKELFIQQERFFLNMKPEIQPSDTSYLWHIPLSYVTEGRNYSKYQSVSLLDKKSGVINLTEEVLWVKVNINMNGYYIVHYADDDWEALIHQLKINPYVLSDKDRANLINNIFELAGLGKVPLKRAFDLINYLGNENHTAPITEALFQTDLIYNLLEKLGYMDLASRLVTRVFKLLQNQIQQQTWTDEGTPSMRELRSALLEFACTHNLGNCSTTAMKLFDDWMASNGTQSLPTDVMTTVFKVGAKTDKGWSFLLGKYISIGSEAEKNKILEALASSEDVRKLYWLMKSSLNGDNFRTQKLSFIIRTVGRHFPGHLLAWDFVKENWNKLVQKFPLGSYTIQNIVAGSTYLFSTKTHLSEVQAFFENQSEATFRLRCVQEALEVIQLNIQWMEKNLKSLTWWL

Turning to `CCOC(=O)C1=C(C)OC(N)=C(C#N)C1c1ccc(OC(C)=O)c(C)c1` (stereo not shown) [Compound 11n, Ethyl 4-(4-acetoxy-3-methylphenyl)-6-amino-5-cyano-2-methyl-4H-pyran-3-carboxylate], for the setting “Table 2-1, read-out: IC50”, the half-maximal inhibitory concentration (IC50) was above 100 µM.

Regarding `CCOC(=O)C1=C(C)OC(N)=C(C#N)C1c1ccncc1` (stereo not shown) [Compound 11r], under “Table 2-1, read-out: IC50”, the half-maximal inhibitory concentration (IC50) was above 100 µM. Turning to `CC(=O)NC1=C(C#N)C(c2ccc(C(=O)O)cc2)C(C(C)=O)=C(C)O1` (stereo not shown) [Compound 16, 4-(2-Acetamido-5-acetyl-3-cyano-6-methyl-4H-pyran-4-yl)benzoic Acid], the Ki (Table 2-6) is 4.2 µM. As to `CC(=O)C1=C(C)OC(N)=C(C#N)C1c1ccc(C#N)cc1` (stereo not shown) [Compound 15d], the Ki (Table 2-5) was 59.5 µM. As to `CCOC(=O)C1=C(C)OC(N)=C(C#N)C1c1ccc(O)cc1` (stereo not shown) [Compound 11e], for the setting “Table 2-1”, the Ki was 61.3 µM. The IC50 (Table 2-1, read-out: IC50) is 103 µM. For `CC(=O)C1=C(C)OC(N)=C(C#N)C1c1cccc(C(=O)O)c1` (stereo not shown) [Compound 15b, 3-(3-Acetyl-6-amino-5-cyano-2-methyl-4H-pyran-4-yl)benzoic Acid], where the note is “Table 2-5”, the Ki is 3.9 µM. Also, the IC50 (Table 2-5, read-out: IC50) lay in the range of 6 to 7 µM. In the case of `CCOC(=O)C1=C(C)OC(N)=C(C(=O)OCC)C1c1ccc(C(=O)O)cc1` (stereo not shown) [Compound 17a, 4-(2-Amino-3,5-bis(ethoxycarbonyl)-6-methyl-4H-pyran-4-yl)benzoic Acid], the Ki (Table 2-7) is 4.2 µM. Also, the IC50 (Table 2-7, read-out: IC50) stood at 7 µM. Regarding `COC(=O)c1ccc(C2C(C#N)=C(N)OC(C)=C2C(=O)OCc2ccccc2)cc1` (stereo not shown) [Compound 14c], for the setting “Table 2-4, read-out: IC50”, the IC50 lay within 10 to 100 µM.

For `CCOC(=O)C1=C(C)OC(N)=C(C#N)C1c1cc(Br)c(O)c(OC)c1` (stereo not shown) [Compound 11a], the Ki (Table 2-1) is 13.7 µM. Moreover, the IC50 (Table 2-1, read-out: IC50) amounted to 23 µM. With `CC(=O)C1=C(C)OC(N)=C(C#N)C1c1ccc2nccnc2c1` (stereo not shown) [Compound 15j, 5-Acetyl-2-amino-6-methyl-4-(quinoxalin-6-yl)-4H-pyran-3-carbonitrile], the IC50 (Table 2-5, read-out: IC50) is above 100 µM. Consider `CCOC(=O)C1=C(C)OC(N)=C(C#N)C1c1ccc(C(=O)O)cc1` (stereo not shown) [Compound 11k, 4-(2-Amino-3-cyano-5-(ethoxycarbonyl)-6-methyl-4H-pyran-4-yl)benzoic Acid], for which, under “Table 2-1”, the inhibition constant (Ki) was 18.4 µM. Besides, the IC50 (Table 2-1, read-out: IC50) came to 31 µM. For `CCOC(=O)C1=C(C)OC(N)=C(C#N)C1c1ccc(O)c(OC)c1` (stereo not shown) [Compound 11b] the same measures were 13.1 µM and 22 µM. Regarding `COC(=O)C1=C(C)OC(N)=C(C#N)C1c1ccc(O)cc1` (stereo not shown) [Compound 13c], the IC50 (Table 2-3, read-out: IC50) was above 100 µM.

On to `COc1ccc(C2C(C#N)=C(N)OC(C)=C2C(=O)OCc2ccccc2)cc1OC` (stereo not shown) [Compound 14a], for which the Ki (Table 2-4) was 16.7 µM. Moreover, the IC50 (Table 2-4, read-out: IC50) was determined as 28 µM.

As to `CCOC(=O)C1=C(C)OC(N)=C(C#N)C1c1cc(OC)c2c(c1)OCO2` (stereo not shown) [Compound 11h], the Ki (Table 2-1) is 37.5 µM. The IC50 (Table 2-1, read-out: IC50) is 63 µM. Consider `CCOC(=O)C1=C(C)OC(N)=C(C#N)C1c1ccc2ccccc2n1` (stereo not shown) [Compound 11s, Ethyl 6-amino-5-cyano-2-methyl-4-(quinolin-2-yl)-4H-pyran-3-carboxylate], for which, for the setting “Table 2-1, read-out: IC50”, the IC50 fell in the range of 3 to 40 µM. In the case of `CCOC(=O)C1=C(C)OC(N)=C(C#N)C1c1ccc2c(c1)OCO2` (stereo not shown) [Compound 11g], under “Table 2-1, read-out: IC50”, the IC50 was above 50 µM. As for `CC(=O)C1=C(C)OC(N)=C(C#N)C1c1ccc2ccccc2n1` (stereo not shown) [Compound 15i, 5-Acetyl-2-amino-6-methyl-4-(quinolin-2-yl)-4H-pyran-3-carbonitrile], the inhibition constant (Ki) (Table 2-5) was 10.1 µM. Moreover, the IC50 (Table 2-5, read-out: IC50) worked out at 17 µM.

Take `CCOC(=O)C1=C(C)OC(N)=C(C#N)C1c1ccc(OC)c(OC)c1` (stereo not shown) [Compound 11i]: where the note is “Table 2-1, read-out: IC50”, the IC50 is above 50 µM.

Consider `CCOC(=O)C1=C(C)OC(N)=C(C#N)C1c1ccc(C#N)cc1` (stereo not shown) [Compound 11j], for which, under “Table 2-1, read-out: IC50”, the IC50 is above 100 µM. `CC1=C(C(=O)OCc2ccccc2)C(c2ccc(C(=O)O)cc2)C(C#N)=C(N)O1` (stereo not shown) [Compound 14b, 4-(2-Amino-5-(benzyloxycarbonyl)-3-cyano-6-methyl-4H-pyran-4-yl)benzoic Acid]: the inhibitory constant (Ki) (Table 2-4) was 3 µM. Moreover, under “Table 2-4, read-out: IC50”, the 50% inhibitory concentration (IC50) worked out at 5 µM.

With `COc1cc(C2C(C#N)=C(N)Oc3cc(C)oc(=O)c32)cc(Br)c1O` (stereo not shown) [Compound 18], for the setting “Table 2-8, read-out: IC50 μ”, the IC50 was 40 µM. As for `CCOC(=O)C1=C(C)OC(N)=C(C#N)C1c1cc(C)c(OC(C)=O)c(C)c1` (stereo not shown) [Compound 11o, Ethyl 4-(4-acetoxy-3,5-dimethylphenyl)-6-amino-5-cyano-2-methyl-4H-pyran-3-carboxylate], for the setting “Table 2-1, read-out: IC50”, the IC50 is above 100 µM. For the molecule `COC(=O)C1=C(C)OC(N)=C(C#N)C1c1ccc(O)c(OC)c1` (stereo not shown) [Compound 13d], the Ki (Table 2-3) is 8.3 µM. In addition, the IC50 (Table 2-3, read-out: IC50) worked out at 14 µM. For `COC(=O)C1=C(C)OC(N)=C(C#N)C1c1ccc(C(=O)O)cc1` (stereo not shown) [Compound 13b, 4-(2-Amino-3-cyano-5-(methoxycarbonyl)-6-methyl-4H-pyran-4-yl)benzoic Acid] the same measures were 8.3 µM and 14 µM.

Regarding `CCOC(=O)C1=C(CC)OC(N)=C(C#N)C1c1ccc(O)c(OCC)c1` (stereo not shown) [Compound 12c], the Ki (Table 2-2) is 67.2 µM. Further, the 50% inhibitory concentration (IC50) (Table 2-2, read-out: IC50) is 113 µM. Turning to `CC(=O)C1=C(C)OC(N)=C(C#N)C1c1ccc(C(=O)O)cc1` (stereo not shown) [Compound 15a, 4-(3-Acetyl-6-amino-5-cyano-2-methyl-4H-pyran-4-yl)benzoic Acid], the Ki (Table 2-5) was 1.8 µM. Besides, the IC50 (Table 2-5, read-out: IC50) fell in the range of 2 to 4 µM. Turning to `CC1=C(C(=O)OCc2ccccc2)C(c2ccc(C#N)cc2)C(C#N)=C(N)O1` (stereo not shown) [Compound 14d, Benzyl 6-amino-5-cyano-4-(4-cyanophenyl)-2-methyl-4H-pyran-3-carboxylate], for the setting “Table 2-4, read-out: IC50”, the IC50 was above 100 µM.

As to `CCOC(=O)C1=C(C)OC(N)=C(C#N)C1c1cccnc1` (stereo not shown) [Compound 11q], the IC50 (Table 2-1, read-out: IC50) is above 50 µM. Take `CCOC(=O)C1=C(C)OC(N)=C(C#N)C1c1ccc(-c2ccccn2)cc1` (stereo not shown) [Compound 11p, Ethyl 6-amino-5-cyano-2-methyl-4-(4-(pyridin-2-yl)phenyl)-4H-pyran-3-carboxylate]: where the note is “Table 2-1, read-out: IC50”, the IC50 was above 100 µM. The same measure, in the same setting: the value for `CCOC(=O)C1=C(C)OC(N)=C(C#N)C1c1ccc([N+](=O)[O-])cc1` (stereo not shown) [Compound 11l] was above 100 µM; that for `CCOC(=O)C1=C(C)OC(N)=C(C#N)C1c1cccc(C(=O)O)c1` (stereo not shown) [Compound 11m, 3-(2-Amino-3-cyano-5-(ethoxycarbonyl)-6-methyl-4H-pyran-4-yl)benzoic Acid] was above 100 µM. For `COc1cc(C2C(C#N)=C(N)OC(C)=C2C(C)=O)ccc1O` (stereo not shown) [Compound 15c], the Ki (Table 2-5) was 16.7 µM. Moreover, the IC50 (Table 2-5, read-out: IC50) worked out at 28 µM. As for `CCOC(=O)C1=C(C)OC(N)=C(C#N)C1c1cnc2ccccc2c1` (stereo not shown) [Compound 11t, Ethyl 6-amino-5-cyano-2-methyl-4-(quinolin-3-yl)-4H-pyran-3-carboxylate], for the setting “Table 2-1, read-out: IC50”, the IC50 is above 100 µM.

Consider `CCOC(=O)C1=C(CC)OC(N)=C(C#N)C1c1ccc(O)c(OC)c1` (stereo not shown) [Compound 12a], for which the Ki (Table 2-2) is 85.1 µM. Also, the concentration for half-maximal inhibition (IC50) (Table 2-2, read-out: IC50) was 143 µM. Consider `CCOC(=O)C1=C(C)OC(N)=C(C#N)C1c1ccnc2ccccc12` (stereo not shown) [Compound 11u, Ethyl 6-amino-5-cyano-2-methyl-4-(quinolin-4-yl)-4H-pyran-3-carboxylate], for which, for the setting “Table 2-1, read-out: IC50”, the 50% inhibitory concentration (IC50) is above 100 µM.
